The target of this experiment is T1, full-length human Mineralocorticoid Receptor (MR) (Homo sapiens, UniProt P08235).
T1 construct: host or cells: PathHunter CHO-K1 cells
T1 sequence (P08235 1-984): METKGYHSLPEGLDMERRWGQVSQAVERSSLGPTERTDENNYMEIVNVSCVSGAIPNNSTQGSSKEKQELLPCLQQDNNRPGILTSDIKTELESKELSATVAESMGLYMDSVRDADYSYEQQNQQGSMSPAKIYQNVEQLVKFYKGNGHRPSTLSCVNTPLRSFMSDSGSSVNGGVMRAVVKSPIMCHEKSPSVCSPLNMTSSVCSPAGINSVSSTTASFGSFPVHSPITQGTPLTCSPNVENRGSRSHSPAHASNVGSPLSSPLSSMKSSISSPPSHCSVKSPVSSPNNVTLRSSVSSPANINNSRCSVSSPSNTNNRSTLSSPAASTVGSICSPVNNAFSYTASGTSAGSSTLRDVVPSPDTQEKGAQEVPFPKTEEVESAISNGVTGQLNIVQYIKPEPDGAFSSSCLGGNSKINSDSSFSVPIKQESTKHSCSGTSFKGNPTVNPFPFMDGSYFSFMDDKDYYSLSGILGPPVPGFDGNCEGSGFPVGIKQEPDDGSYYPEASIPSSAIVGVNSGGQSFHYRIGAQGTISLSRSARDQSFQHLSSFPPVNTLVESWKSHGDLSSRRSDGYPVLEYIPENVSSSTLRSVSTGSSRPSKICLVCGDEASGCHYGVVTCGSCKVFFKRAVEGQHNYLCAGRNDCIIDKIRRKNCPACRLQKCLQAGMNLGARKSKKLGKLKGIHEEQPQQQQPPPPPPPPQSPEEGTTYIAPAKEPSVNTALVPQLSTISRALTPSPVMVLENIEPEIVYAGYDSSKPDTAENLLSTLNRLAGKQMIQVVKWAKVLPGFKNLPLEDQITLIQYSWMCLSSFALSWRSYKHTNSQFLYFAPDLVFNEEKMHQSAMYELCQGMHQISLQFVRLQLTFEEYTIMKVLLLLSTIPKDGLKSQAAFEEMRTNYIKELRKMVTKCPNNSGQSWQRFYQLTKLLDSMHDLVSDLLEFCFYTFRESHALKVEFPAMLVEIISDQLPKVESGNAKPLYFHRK
Kind of experiment: human MR NH Pro assay (PathHunter Protein:Protein interaction assay), MR antagonist activity. In kind it is cell-based. The conditions noted are these: for IC50: PathHunter CHO-K1 cells overexpressing human MR, aldosterone 0.3 nM to about 1 nM, 6 hours at 37° C., luminescence, read-out: IP (rating), IP is the inflection point for a given dose-response titration curve; for relative MR antagonist activity of the separated enantiomers: enantiomers from chiral SFC OJ-H separation of the racemate. The text has this: The activity of the compounds of the present invention regarding mineralocorticoid receptor antagonism can be evaluated using the following assay.
Assessment of MR Potency in HMR NH Pro Assay
The human MR NH Pro assay is a commercially available PathHunter™ Protein:Protein interaction assay (DiscoveRx; http://www.discoverx.com/nhrs/prod-nhrs.php) that measures the ability of compounds to antagonize full-length human Mineralocorticoid Receptor (MR) binding to a coactivator peptide. PathHunter™ CHO-K1 cells that overexpress human MR (Cat #93-0456C2, Lot No: 09B0913) were cultured in growth media (F12K w/Glutamine and phenol red (Gibco 11765-047) supplemented with 10% HI FBS (Gibco 16000); 0.25 mg/ml Hygromycin in PBS (Invitrogen 10687-010, 50 mg/ml); 100 I.U./mL and 100 μg/mL Pen/Strep (Gibco 15140-122); 0.6 mg/mL Geneticin (Gibco 10131-027).
Compounds were assessed for MR antagonist activity by incubating the cells with a titrating dose of compound in F12K w/Glutamine and phenol red culture media (Invitrogen 11765-047) supplemented with 1% Charcoal/Dextran Treated FBS (Hyclone #SH30068.01) and aldosterone (0.3 nM to about 1 nM) for 6 hours at 37° C. Cells were then treated with DiscoveRx detection reagent for 1 hour at room temperature and read using an Envision luminescence plate reader. % activity was measured relative to cells treated with aldosterone alone and IC50 values were calculated using ADA software.
Stock solution was prepared at 10 μM in DMSO and stored at −20° C. for assay, dilute in assay media to 1.8 or 6 nM (6× of final concentration=about 0.3 nM to about 1.0 nM)
5. Cell line: PathHunter CHO-K1 MR cells Cat #93-0456C2, Lot No: 09B0913, from operation liquid nitrogen stock.
3. The cells concentration was adjusted to 4×10^5 cells/mL.
4. Cells were (25 μL/well) added to the wells of a 384 well plate.
5. The plate was then incubated at 37° C. over night in a humidified incubator with 5% CO2.
6. Test compounds were titrated starting at 4.4 mM, 10-point titration in 1:3 dilution.
7. Aldosterone was diluted in assay media to 1.8 nM or 6 nM from 10 μM stock (final concentration to be about 0.3 nM to about 1.0 nM)
1. 10K exponentially growing cells/well (25 μL) were resuspended in assay media and plated into each well using the Multidrop (Thermo Electron) (use white wall, clear bottom assay plates (Costar #3570) and incubated overnight at 37° C., 5% CO2.
2. 0.25 μL 120× test compound (final DMSO concentration should be <1%) was added to each well n=2, 10 point titrations starting at 36.7 μM final concentration.
3. 5 μL of 6× agonist (final aldosterone concentration should be about 0.3 nM to about 1.0 nM) was added to all wells (using the PlateMate Plus; (ThermoFisher) (except those wells in columns 23 and 24)
4. 5 μL of assay media was added to all wells in column 23 and 24.
5. Cells were then incubated for 6 hrs at 37° C., 5% CO2.
6. 15 μL 3× DiscoveRx detection reagent was then added to each well.
7. Plates were incubated for 1 hour at room temperature in the dark.
8. Plates were read on Envision (PerkinElmer) luminesence plate reader and analyzed using ADA.

`CS(=O)(=O)Nc1cccc2c(C(CCC#N)c3ccc(Cl)cc3F)n[nH]c12` (single isomer, unassigned) [Example 2, N-{3-[1-(4-chloro-2-fluorophenyl)-3-cyanopropyl]-1H-indazol-7-yl}methanesulfonamide (Single Enantiomer)]: the IC50 is under 100 nM and the “relative MR antagonist activity of the separated enantiomers” value is “more active”. Consider `CS(=O)(=O)Nc1cccc2c(C(CCC#N)c3ccc(Cl)cc3F)n[nH]c12` (single isomer, unassigned) [second peak, N-{3-[1-(4-Chloro-2-fluorophenyl)-3-cyanopropyl]-1H-indazol-7-yl}methanesulfonamide], for which the “relative MR antagonist activity of the separated enantiomers” value is listed as “less active”.

Regarding `CCC(c1ccc(Cl)cc1)(c1n[nH]c2c(NS(C)(=O)=O)cccc12)C(C)O` (single isomer, unassigned; diastereoisomer a) [Compound 24A, N-(3-(3-(4-chlorophenyl)-2-hydroxypentan-3-yl)-1H-indazol-7-yl)methane sulfonamide(diastereoisomer A)], the IC50 was under 100 nM. Still for that read-out and setting: for `CCC(c1ccc(Cl)cc1)(c1n[nH]c2c(NS(C)(=O)=O)cccc12)C(C)O` (single isomer, unassigned; diastereoisomer b) [Compound 24B] the value was under 100 nM; for `CCC(C#N)(c1ccc(Cl)cc1)c1n[nH]c2c([N+](=O)[O-])cccc12` (stereo not shown) [Compound 22, 2-(4-chlorophenyl)-2-(7-nitro-1H-indazol-3-yl)butanenitrile], 500 to 6000 nM. Still for that read-out and setting: for `CCC(C#N)(c1ccc(Cl)cc1)c1n[nH]c2c(NS(C)(=O)=O)cccc12` (stereo not shown) [Compound 23, N-(3-(1-(4-chlorophenyl)-1-cyanopropyl)-1H-indazol-7-yl)methanesulfonamide] the value was 500 to 6000 nM. Still for that read-out and setting: under `CCC(CO)(c1ccc(Cl)cc1)c1n[nH]c2c(NS(C)(=O)=O)cccc12` (stereo not shown) [Compound 25, N-(3-(2-(4-chlorophenyl)-1-hydroxybutan-2-yl)-1H-indazol-7-yl)methane sulfonamide] stands under 100 nM. For `Fc1cc(Cl)ccc1Cc1n[nH]c2ccccc12` [Example 1, 3-(4-chloro-2-fluorobenzyl)-1H-indazole], the IC50 lay in the range of 500 to 6000 nM. On to `N#CCCC(c1ccc(Cl)cc1F)c1n[nH]c2c(-c3cccnc3)cccc12` (stereo not shown) [Example 3, 4-(4-chloro-2-fluorophenyl)-4-(7-pyridin-3-yl-1H-indazol-3-yl)butanenitrile], for which the IC50 fell in the range of 500 to 6000 nM. Same read-out and setting: for `N#CCCC(c1ccc(Cl)cc1F)c1n[nH]c2c(-c3ccncc3)cccc12` (stereo not shown) [Example 4, 4-(4-chloro-2-fluorophenyl)-4-(7-pyridin-4-yl-1H-indazol-3-yl)butanenitrile] the value was 500 to 6000 nM; for `CS(=O)(=O)Nc1cccc2c(C(CCCO)c3ccc(Cl)cc3F)n[nH]c12` (stereo not shown) [Example 5, N-{3-[1-(4-chloro-2-fluorophenyl)-4-hydroxybutyl]-1H-indazol-7-yl}methanesulfonamide], 100 to 500 nM; for `CS(=O)(=O)Nc1cccc2c(C(CC#N)c3ccc(Cl)cc3F)n[nH]c12` (stereo not shown) [Example 6, N-{3-[1-(4-chloro-2-fluorophenyl)-2-cyanoethyl]-1H-indazol-7-yl}methanesulfonamide], 500 to 6000 nM. As to `N#CCCC(c1ccc(Cl)cc1F)c1n[nH]c2c(NS(=O)(=O)C3CC3)cccc12` (stereo not shown) [Example 7, N-{3-[1-(4-chloro-2-fluorophenyl)-3-cyanopropyl]-1H-indazol-7-yl}cyclopropanesulfonamide], the IC50 lay in the range of 500 to 6000 nM. With `Cc1noc(CCC(c2ccc(Cl)cc2F)c2n[nH]c3c(NS(C)(=O)=O)cccc23)n1` (stereo not shown) [Example 8, N-{3-[1-(4-chloro-2-fluorophenyl)-3-(3-methyl-1,2,4-oxadiazol-5-yl)propyl]-1H-indazol-7-yl}methanesulfonamide], the IC50 lay in the range of 500 to 6000 nM. The same measure, in the same setting: for `CC(=O)CCC(c1ccc(Cl)cc1F)c1n[nH]c2c(NS(C)(=O)=O)cccc12` (stereo not shown) [Example 9, N-{3-[1-(4-chloro-2-fluorophenyl)-4-oxopentyl]-1H-indazol-7-yl}methanesulfonamide] the value was 500 to 6000 nM; for `CC(C)(O)CCC(c1ccc(Cl)cc1F)c1n[nH]c2c(NS(C)(=O)=O)cccc12` (stereo not shown) [Example 10, n-{3-[1-(4-chloro-2-fluorophenyl)-4-hydroxy-4-methylpentyl]-1H-indazol-7-yl}methanesulfonamide], 500 to 6000 nM; for `CCC(O)(CC)CCC(c1ccc(Cl)cc1F)c1n[nH]c2c(NS(C)(=O)=O)cccc12` (stereo not shown) [Example 11, N-{3-[1-(4-chloro-2-fluorophenyl)-4-hydroxy-4-ethylhexyl]-1H-indazol-7-yl}methanesulfonamide], 500 to 6000 nM. Same read-out and setting: under `N#CCCC(c1ccc(Cl)cc1F)c1n[nH]c2ccccc12` (stereo not shown) [Example 12, 4-(4-chloro-2-fluorophenyl)-4-(1H-indazol-3-yl)butanenitrile] stands 500 to 6000 nM; under `Cn1nc(C(CCC#N)c2ccc(Cl)cc2F)c2ccccc21` (stereo not shown) [Example 13, 4-(4-chloro-2-fluorophenyl)-4-(1-methyl-1H-indazol-3-yl)butanenitrile], 500 to 6000 nM; under `CCn1nc(C(CCC#N)c2ccc(Cl)cc2F)c2ccccc21` (stereo not shown) [Example 14, 4-(4-chloro-2-fluorophenyl)-4-(1-ethyl-1H-indazol-3-yl)butanenitrile], 500 to 6000 nM. In the case of `CCCn1nc(C(CCC#N)c2ccc(Cl)cc2F)c2ccccc21` (stereo not shown) [Example 15, 4-(4-chloro-2-fluorophenyl)-4-(1-propyl-1H-indazol-3-yl)butanenitrile], the IC50 lay within 500 to 6000 nM. Still for that read-out and setting: for `N#CCCC(c1ccc(Cl)cc1F)c1nn(Cc2ccccc2)c2ccccc12` (stereo not shown) [Example 16, 4-(1-benzyl-1H-indazol-3-yl)-4-(4-chloro-2-fluorophenyl)butanenitrile] the value was 500 to 6000 nM. On to `COC(=O)Cn1nc(C(CCC#N)c2ccc(Cl)cc2F)c2ccccc21` (stereo not shown) [Example 17A, methyl {3-[1-(4-chloro-2-fluorophenyl)-3-cyanopropyl]-1H-indazol-1-yl}acetate], for which the IC50 lay in the range of 500 to 6000 nM. Same read-out and setting: under `CC(C)(C)OC(=O)Cn1nc(C(CCC#N)c2ccc(Cl)cc2F)c2ccccc21` (stereo not shown) [Example 17B, tert-Butyl {3-[1-(4-chloro-2-fluorophenyl)-3-cyanopropyl]-1H-indazol-1-yl}acetate] stands 500 to 6000 nM.
